One data set deals with LSD1 (Homo sapiens (Human), UniProt O60341). The data set is described as follows: LSD1 enzyme activity detection (HTRF). In kind it is biochemical. To be noted: HTRF, H3K4me1 substrate; read-out: Inhibition of enzymatic activity of LSD1 IC50. A general note: In TR-FRET formats the signal depends on donor and acceptor labels being close together.
A further data set concerns NCI-H1417 cells. The data set is described as follows: In vitro cell proliferation detection (CellTiter-Glo, 7 days). It is filed as cell-based. As to conditions: NCI-H1417 cells, 7 days, CellTiter-Glo, read-out: NCI-H1417 proliferation inhibition IC50. In general terms: In ATP-based viability assays light output follows the ATP content of the culture.
A further data set is described as follows: in vitro. To be noted: human, Caco-2.
The nature of another data set: Rat PK test (IV and PO). To be noted: for Cl / F: Male SD rats; for F: PO vs IV; for AUC(0-inf) / Cmax / half-life / Vd: male, SD, rat, plasma; for Vd: intravenous.
A further data set can be described thus: Caco-2 permeability test. To be noted: human, Caco-2.
In data set [1] the target is T1, CYP3A4 (Homo sapiens (Human), UniProt P08684). The data set is described as follows: CYP 450 enzyme inhibition test (mixed human liver microsomes, LC-MS/MS).
Data set [2] deals with T1, CYP3A4. As to conditions: microsomes.
For another data set, the system named is Caco-2 cells. The data set is described as follows: Caco-2 permeability test. As to conditions: for Mean Papp A to B: Caco-2, A to B; for Mean Papp A to B / Mean Papp B to A: 120 min; for Mean Papp B to A: Caco-2, B to A. On the technique in general: Caco-2 cells form a polarised layer with tight junctions and transporters.
The target of data set [3] is T2, voltage-gated potassium ion channel hERG (Homo sapiens (Human), UniProt Q12809). In words: hERG inhibition test (manual patch-clamp).
Data set [4] deals with T2, voltage-gated potassium ion channel hERG.
For data set [5] the following is noted: rat, in vivo; for F: male, SD.
The nature of the next data set: in vivo. As to conditions: male, SD, rat.
Setting [6] is: read-out: CYP3A4-T IC50, mixed human liver microsomes, NADPH, CYP3A4-T probe substrate.
Setting [7] is: read-out: hERG IC50, manual patch-clamp.

We go through 13 compounds from patent US20240216357A1 (SICHUAN HUIYU PHARMACEUTICAL CO., LTD., priority 2021, published 2024).

Where a name gives a salt, the structure may show the parent alone. Read-outs that look alike come from different tables or passages of the source.

T2 sequence (Q12809 whole entry): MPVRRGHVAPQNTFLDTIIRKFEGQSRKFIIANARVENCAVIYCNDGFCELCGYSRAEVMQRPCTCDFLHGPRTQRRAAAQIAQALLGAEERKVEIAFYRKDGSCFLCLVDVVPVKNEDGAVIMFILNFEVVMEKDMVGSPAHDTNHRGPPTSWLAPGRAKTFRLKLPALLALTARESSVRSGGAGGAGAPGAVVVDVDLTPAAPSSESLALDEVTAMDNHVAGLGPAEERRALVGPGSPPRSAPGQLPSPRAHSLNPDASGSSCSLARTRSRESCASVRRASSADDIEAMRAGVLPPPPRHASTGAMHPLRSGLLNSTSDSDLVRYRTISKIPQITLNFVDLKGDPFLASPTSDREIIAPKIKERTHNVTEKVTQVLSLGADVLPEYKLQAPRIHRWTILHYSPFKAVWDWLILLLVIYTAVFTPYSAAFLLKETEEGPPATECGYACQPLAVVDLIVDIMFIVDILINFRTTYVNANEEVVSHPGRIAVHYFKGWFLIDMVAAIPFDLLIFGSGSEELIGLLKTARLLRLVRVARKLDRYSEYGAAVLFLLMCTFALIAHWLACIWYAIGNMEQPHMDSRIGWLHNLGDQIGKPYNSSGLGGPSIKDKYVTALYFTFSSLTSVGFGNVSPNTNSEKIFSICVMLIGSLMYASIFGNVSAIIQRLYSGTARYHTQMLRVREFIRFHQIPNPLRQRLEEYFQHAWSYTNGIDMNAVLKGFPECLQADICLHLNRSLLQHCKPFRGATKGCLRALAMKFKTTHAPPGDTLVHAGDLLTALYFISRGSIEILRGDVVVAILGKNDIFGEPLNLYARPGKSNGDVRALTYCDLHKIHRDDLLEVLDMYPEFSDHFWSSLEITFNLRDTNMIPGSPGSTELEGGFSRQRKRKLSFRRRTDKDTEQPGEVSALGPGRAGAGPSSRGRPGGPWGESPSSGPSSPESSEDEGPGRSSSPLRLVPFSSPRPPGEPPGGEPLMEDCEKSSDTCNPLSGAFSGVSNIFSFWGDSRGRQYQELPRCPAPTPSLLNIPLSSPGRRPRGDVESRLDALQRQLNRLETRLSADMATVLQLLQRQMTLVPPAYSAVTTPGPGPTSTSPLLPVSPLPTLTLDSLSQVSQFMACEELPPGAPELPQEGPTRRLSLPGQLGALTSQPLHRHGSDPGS
T1 sequence (P08684 whole entry): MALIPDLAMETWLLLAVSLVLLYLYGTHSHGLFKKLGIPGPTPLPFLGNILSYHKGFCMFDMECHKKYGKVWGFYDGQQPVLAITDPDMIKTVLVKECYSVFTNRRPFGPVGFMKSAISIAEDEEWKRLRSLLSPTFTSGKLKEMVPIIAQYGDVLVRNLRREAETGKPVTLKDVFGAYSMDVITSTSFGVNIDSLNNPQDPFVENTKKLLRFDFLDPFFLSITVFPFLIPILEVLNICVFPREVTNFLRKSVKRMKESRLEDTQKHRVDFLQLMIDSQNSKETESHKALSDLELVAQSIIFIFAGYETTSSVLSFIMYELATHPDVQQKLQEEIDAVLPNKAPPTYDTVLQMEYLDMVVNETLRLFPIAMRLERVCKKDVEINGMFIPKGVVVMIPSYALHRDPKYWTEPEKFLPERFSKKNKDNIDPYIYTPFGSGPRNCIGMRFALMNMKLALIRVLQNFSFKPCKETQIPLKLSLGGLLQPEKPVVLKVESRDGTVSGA

On to `Cc1noc2cc(-c3sc(C(=O)N4C5CCC4CC(N)C5)nc3-c3ccc(C#N)c(F)c3)c(F)cc12` (stereo not drawn) [Example 220, 4-(2-(3-amino-8-azabicyclo[3.2.1]octane-8-carbonyl)-5-(5-fluoro-3-methylbenzo[d]isoxazol-6-yl)thiazol-4-yl)-2-fluorobenzonitrile hydrochloride], for which the IC50 on LSD1 was 0.42 ± 0.06 nM. For the same compound, in the data set on NCI-H1417 cells (Homo sapiens, 168 h), the IC50 stood at 1.32 nM. Also, in the data set “in vitro”, the apical-to-basolateral permeability (Papp A→B) at 120 min amounted to 2.3 ×10⁻⁶ cm/s, the Papp B→A at 120 min is 6.21 ×10⁻⁶ cm/s and the efflux ratio at 120 min came to 2.7.

Consider `COc1ccc(-c2c(-c3ccc(C#N)c(F)c3)nc(N3CCC(N)CC3)n(C)c2=O)cc1F` [(CC90011), reference compound], for which, in “Rat PK test (IV and PO)”, the Cl is 94.5 mL/min/kg, the F amounted to 14.3%, the total exposure AUC(0-inf) was determined as 132 ng·h/mL and the highest level (Cmax) was 26 ng/mL. In the data set “Rat PK test (IV and PO)”, this compound showed a half-life of 2.32 h and a Vd of 19.1 L/kg. In “Caco-2 permeability test”, this compound returned a Papp A→B at 120 min of 7.26 ×10⁻⁶ cm/s and an apparent permeability from basolateral to apical (Papp B→A) at 120 min of 41 ×10⁻⁶ cm/s. Moreover, at CYP3A4 [1] (setting [6]), the IC50 was more than 50000 nM.

For the compound `N#Cc1ccc(-c2nc(N3C4CCC3CC(N)C4)n3ccnc3c2-c2cc3c(cc2F)OCO3)cc1F` (stereo not drawn) [Example 175, 4-(5-(3-amino-8-azabicyclo[3.2.1]octane-8-yl)-8-(6-fluorobenzo[d] [1,3]dioxane-5- -yl)imidazolo [1,2-c]pyrimidin-7-yl)-2-fluorobenzonitrile hydrochloride], the IC50 at LSD1 was 3.2 ± 2.1 nM; in the data set on NCI-H1417 cells (Homo sapiens, 168 h), 4.13 nM; against CYP3A4 [2] it was 8080 nM.

In the case of `CS(=O)(=O)N1CCN(C(=O)c2cc(CCCN[C@@H]3C[C@H]3c3ccc(F)cc3)nc(-c3ccc(-n4cccn4)cc3)n2)CC1` [Example 257, (2-(4-(1H-pyrazol-1-yl)phenyl)-6-(3-((1R,2S)-2-(4-fluorophenyl)cyclopropyl)amino)pyrimidin-4-yl)(4-(methylsulfonyl)piperazin-1-yl)methanone], in the data set with Caco-2 cells, the “Mean Papp A to B” value is 1.54 10^−6 cm/s and the “Mean Papp B to A” value is on record as 4.55 10^−6 cm/s. In data set [3] (setting [7]), the IC50 is 2830 nM.

As to `COc1ccc(-c2cnc(N3CCC(N)CC3)c(C#N)c2-c2ccc(C#N)c(F)c2)cc1O` [Example 66, 2-(4-aminopiperidin-1-yl)-4-(4-cyano-3-fluorophenyl)-5-(3-hydroxy-4-methoxyphenyl)nicotinon itrile hydrochloride], at LSD1, the IC50 amounted to 0.2 ± 0.1 nM. In addition, the IC50 in the data set with NCI-H1417 cells (Homo sapiens, 168 h) turned out to be 0.2 nM. In “Rat PK test (IV and PO)”, this compound registered a Cl of 68.2 mL/min/kg, an F of 17.7%, an AUC(0-inf) of 227 ng·h/mL and a Cmax of 42.5 ng/mL. In “Rat PK test (IV and PO)”, this compound showed a half-life of 1.96 h and a Vd of 11.3 L/kg. Also, the IC50 in data set [3] (setting [7]) is 15500 nM. In addition, the IC50 at CYP3A4 [1] (setting [6]) amounted to 3650 nM.

As for `CS(=O)(=O)N1CCN(c2cc(CCCN[C@@H]3C[C@H]3c3ccc(F)cc3)nc(-c3ccc(C#N)cc3)n2)CC1` [Example 261, 4-(4-(3-(1R,2S)-2-(4-fluorophenyl)cyclopropyl)amino)-6-(4-(methylsulfonyl)piperazin-1-yl)pyri midin-2-yl)benzonitrile formate], the IC50 in the data set with NCI-H1417 cells came to 3.22 nM. Moreover, in the data set with Caco-2 cells (Caco-2), the “Efflux Ratio” value was 1.38. For the same compound, in the data set with Caco-2 cells, the “Mean Papp A to B” value is on record as 0.49 10^−6 cm/s and the “Mean Papp B to A” value is reported as 0.67 10^−6 cm/s.

On to `CS(=O)(=O)N1CCN(C(=O)c2cc(CCN[C@@H]3C[C@H]3c3ccc(F)cc3)nc(-c3ccc(-n4cccn4)cc3)n2)CC1` [Example 12, (2-(4-(1H-pyrazol-1-yl)phenyl)-6-(2-(((1R,2S)-2-(4-fluorophenyl)cyclopropyl)amino)ethyl)pyrimidin-4-yl) (4-(methylsulfonyl)piperazin-1-yl)methanone], for which, in the data set “Caco-2 permeability test”, the Papp A→B at 120 min came out at 5.95 ×10⁻⁶ cm/s, the Papp B→A at 120 min is 6.92 ×10⁻⁶ cm/s and the efflux ratio at 120 min was found to be 1.16. In addition, in [3], the IC50 turned out to be 4690 nM. Also, at CYP3A4 [1], the IC50 stood at 5590 nM.

On to `N#CCn1ncc2cc(F)c(-c3sc(C(=O)N4C5CCC4CC(N)C5)cc3-c3ccc(C#N)c(F)c3)cc21` (stereo not drawn) [Example 215, 4-(5-(3-amino-8-azabicyclo [3.2.1]octan-8-carbonyl)-2-(1-(cyanomethyl)-5-fluoro-1H-indazol-6-yl)thiophen-3-yl)-2-fluoro-benzonitrile], for which the IC50 on LSD1 turned out to be 0.45 ± 0.05 nM; in the data set with NCI-H1417 cells (Homo sapiens, 168 h), 4.19 nM; in data set [4], 11400 nM.

Turning to `Cc1noc2cc(-c3c(-c4ccc(C#N)c(F)c4)nc(N4CCC(N)CC4)n4ccnc34)c(F)cc12` [Example 125, 4-(5-(4-aminopiperidin-1-yl)-8-(5-fluoro-3-methylbenzo[d]isoxazol-6-yl)imidazolo[1,2-c]pyrimidin-7-yl)-2-fluorobenzonitrile], the IC50 at LSD1 came out at 0.35 ± 0.09 nM. In addition, in the data set on NCI-H1417 cells (Homo sapiens, 168 h), the IC50 was determined as 0.386 nM. For the same compound, in “Rat PK test (IV and PO)”, the Cl turned out to be 60.6 mL/min/kg, the F is 21.8%, the AUC(0-inf) amounted to 323 ng·h/mL and the peak level (Cmax) was 65 ng/mL. In “Rat PK test (IV and PO)”, this compound had a half-life of 2.58 h and a Vd of 14.7 L/kg. For the same compound, in the data set “Caco-2 permeability test”, the apparent permeability from apical to basolateral (Papp A→B) at 120 min stood at 4.27 ×10⁻⁶ cm/s, the Papp B→A at 120 min is 25 ×10⁻⁶ cm/s and the efflux ratio at 120 min came to 5.84. The IC50 in data set [3] (setting [7]) is 9520 nM. In addition, on CYP3A4 [1] (setting [6]), the IC50 is 49900 nM.

Take `COc1ccc(-c2c(-c3ccc(C#N)c(F)c3)nc(N3C4CCC3CC(N)C4)n3ccnc23)cc1O` (stereo not drawn) [Example 155, 4-(5-(3-amino-8-azadicyclo[3.2.1]octane-8-yl)-8-(3-hydroxy-4-methoxyphenyl)imidazolo[1,2-c]pyrimidin-7-yl)-2-fluorobenzonitrile hydrochloride]: the IC50 on LSD1 was found to be 0.2 ± 0.1 nM; in the data set with NCI-H1417 cells (Homo sapiens, 168 h), 0.352 nM; against CYP3A4 [2], 18000 nM.

With `COc1ccc(-c2c(-c3ccc(C#N)c(F)c3)nc(N3C4CCC3CC(N)C4)n3ccnc23)cc1F` (stereo not drawn) [Example 120, 4-(5-(3-amino-8-azabicyclo[3.2.1]octane-8-yl)-8-(3-fluoro-4-methoxyphenyl)imidazolo[1,2-c]pyrimidin-7-yl)-2-fluorobenzonitrile], the IC50 on LSD1 was found to be 0.77 ± 0.43 nM. Moreover, the IC50 in the data set on NCI-H1417 cells (Homo sapiens, 168 h) is 2.08 nM. At CYP3A4 [2], this compound had an IC50 of 8930 nM. The IC50 in [4] is 7830 nM. Moreover, in data set [5], the F turned out to be 14.4% and the Cl was 39.9. In the data set “in vivo”, this compound had an AUC(0-inf) of 310 ng·h/mL, a Cmax of 34.7 ng/mL, a Vd of 14.5 L/kg and a half-life of 4.82 h. For the same compound, in “in vitro”, the Papp A→B at 120 min was found to be 2.88 ×10⁻⁶ cm/s, the Papp B→A at 120 min amounted to 7.37 ×10⁻⁶ cm/s and the efflux ratio at 120 min worked out at 2.56.

On to `COc1ccc(-c2c(OC)cc(N3CCC(N)CC3)nc2-c2ccc(C#N)c(F)c2)cc1F` [Example 87, 4-(6-(4-aminopiperidin-1-yl)-3-(3-fluoro-4-methoxyphenyl)-4-methoxypyridin-2-yl)-2-fluoroben zonitrile], for which the IC50 on LSD1 amounted to 2.82 ± 1.49 nM; in the data set with NCI-H1417 cells (Homo sapiens, 168 h), 3.29 nM; on CYP3A4 [1] (setting [6]), 6740 nM. The apparent permeability from apical to basolateral (Papp A→B) at 120 min in “Caco-2 permeability test” was 2.97 ×10⁻⁶ cm/s. The Papp B→A at 120 min in “Caco-2 permeability test” was determined as 3.35 ×10⁻⁶ cm/s. For the same compound, the efflux ratio at 120 min in “Caco-2 permeability test” was found to be 1.13.

As to `Cc1noc2cc(-c3c(-c4ccc(C#N)c(F)c4)nc(N4C5CCC4CC(N)C5)n4ccnc34)c(F)cc12` (stereo not drawn) [Example 118, 4-(5-(3-amino-8-azabicyclo [3.2.1]octane-8-yl)-8-(5-fluoro-3-methylbenzo[d]isoxazol-6-yl)imidazolo[1,2 c]pyrimidin-7-yl)-2-fluorobenzonitrile], the IC50 on LSD1 is 0.27 ± 0.01 nM. In addition, the IC50 in the data set on NCI-H1417 cells (Homo sapiens, 168 h) was 0.6 nM. The same compound came in with an IC50 at CYP3A4 [2] of 8680 nM. In [4], the IC50 came out at 13200 nM. Besides, in data set [5], the F is recorded as 12.1% and the Cl came to 56.1. In the data set “in vivo”, the AUC(0-inf) was 192 ng·h/mL, the Cmax was 26.9 ng/mL, the Vd turned out to be 20 L/kg and the half-life was 4.67 h.

By Papp A→B is commonly meant the apparent permeability from the apical to the basolateral side of a cell layer. Higher therefore signals ready permeation. As a reminder, the Papp B→A is the apparent permeability from the basolateral to the apical side of a cell layer. Usually efflux ratio stands for a quotient of directional permeabilities that is used to spot active efflux. By AUC(0-inf) is commonly meant the area under the concentration-time curve extrapolated to infinity. As usually defined, the Cmax is the peak of the concentration-time curve. For orientation: half-life means how long it takes for the measured level to halve.
